In patent publication US4629739A, “Substituted sulfonamidobenzamides and method of treating arrhythmias” (priority 1985, dated 1986):
“Also recorded” adds a separate entry of the source. Where two headings read alike, the source gives them in different places.

Tests used:
[1] = system: ganglionic and vagal transmission; test: effects on ganglionic and vagal transmission; type: in vivo; conditions: doses up to 10 mg/kg (i.e., 3-10 times the effective dose)
[2] = system: canine cardiac Purkinje fibers; test: action potential duration and upstroke by standard electrophysiological techniques in normal canine Purkinje fibres; type: cell-based
Excerpt: The action of the compounds of this invention is attributed to their ability to prolong the action potential of the cardiac tissue. Therefore, they are Class III antiarrhythmic agents within the Vaughan-Williams classification of antiarrhythmic agents. Such activity has been analyzed in several procedures, for instance, utilizing standard electrophysiological techniques to measure resting potential, action potential amplitude, duration, rate of rise and refractory periods of normal canine Purkinje fibres; and also utilizing re-entrant arrhythmias induced by programmed electrical stimulation in the conscious dog.

local anesthetic action = conditions: doses up to 50-100 times the concentration which prolongs action potential duration by 20%
cardiovascular function [3] = test: cardiovascular / hemodynamic depression in vivo; conditions: doses 10 to 30 times the therapeutic dose (1-3 mg/kg)
[4] = system: re-entrant ventricular tachycardia; test: model of re-entrant ventricular tachycardia in dogs; type: in vivo, dog; conditions: anesthetized dogs; times more potent than acecainide
cardiac tissue [5] = test: conduction and refractoriness in the cardiac tissue
arrhythmia [6] = test: therapeutic dose; conditions: in vivo
man = conditions: cited from earlier work; for drug induced lupus erythematosis: in man
cardiovascular function [7] = conditions: cited from earlier work; for cardiovascular / hemodynamic depression in vivo: doses approximating the therapeutic dose; for depression of cardiac function: Class I drugs
cardiac tissue [8] = conditions: cited from earlier work; for effect on conduction: known drugs
arrhythmia [9] = conditions: cited from earlier work
[10] = cited from earlier work
[11] = system: ganglionic and vagal transmission; conditions: in vivo; literature; cited from earlier work
cardiac action potential = conditions: in vitro; Goodman & Gilman, 6th Ed., 1980, pg. 768; cited from earlier work

| SMILES | effects on ganglionic or vagal transmission [1] | effect on action potential duration [2] | effect on action potential upstroke [2] | local anesthetic action (local anesthetic action) | cardiovascular depression in vivo (cardiovascular function [3]) | potency relative to acecainide in a model of re-entrant ventricular tachycardia [4] [times] | conduction disturbances in the heart / effect on conduction (cardiac tissue [5]) | therapeutic dose (arrhythmia [6]) [mg/kg] | drug induced lupus erythematosis (man) | cardiovascular / hemodynamic depression in vivo (cardiovascular function [7]) | effect on conduction (cardiac tissue [8]) | depression of cardiac function (cardiovascular function [7]) | also measured |
| --- | --- | --- | --- | --- | --- | --- | --- | --- | --- | --- | --- | --- | --- |
| CS(=O)(=O)Nc1ccc(C(=O)NCCNCc2ccccc2)cc1.Cl [4-[(Methylsulfonyl)amino]-N-[2-((phenylmethyl)amino)ethyl]benzamide hydrochloride] | nor is there any evidence for effects on ganglionic or vagal transmission | prolong action potential duration | without slowing the action potential upstroke (it may be increased) | No local anesthetic action | no evidence for cardiovascular depression | 10 | no conduction disturbances in the heart | 1 to 3 |  |  |  |  |  |
| CCCCCCCNCCNC(=O)c1ccc(NS(C)(=O)=O)cc1.Cl [N-[2-(Heptylamino)ethyl]-4-[(methylsulfonyl)amino]benzamide hydrochloride] | nor is there any evidence for effects on ganglionic or vagal transmission | prolong action potential duration | without slowing the action potential upstroke (it may be increased) | No local anesthetic action | no evidence for cardiovascular depression | 10 | no conduction disturbances in the heart | 1 to 3 |  |  |  |  |  |
| CCN(CC)CCNC(=O)c1ccc(NC(C)=O)cc1 [acecainide] |  |  |  |  |  |  |  |  | shown to cause lupus | causes such depression at doses approximating the therapeutic dose | little effect on conduction of the cardiac action potential |  | mutagenic activity relative to procainamide (Ames Test) (bacteria (Ames Test)): one-half as active; incidence of lupus relative to procainamide (man; versus procainamide): significantly lower than for procainamide; prolongation of refractoriness (cardiac tissue [8]; known drug): does prolong refractoriness; antiarrhythmic activity (arrhythmia [9]; reported): antiarrhythmic activity; deacetylation in man [10]: deacetylated in man |
| CC(C)N(CCC(C(N)=O)(c1ccccc1)c1ccccn1)C(C)C (stereo not shown) [disopyramide] |  |  |  |  |  |  |  |  |  |  | slowing conduction | depress cardiac function |  |
| CCN(CC)CCNC(=O)c1ccc(N)cc1 [procainamide] |  |  |  |  |  |  |  |  | drug induced lupus erythematosis | causes cardiovascular depression; also recorded: causes such depression at doses approximating the therapeutic dose | slowing conduction | depress cardiac function | level showing significant mutagenic potential (Ames Test) (bacteria (Ames Test)): ≤ 0.2 mg/plate; ganglionic and vagal transmission [11]: blocks ganglionic and vagal transmission; effect on action potential duration (cardiac action potential): prolongs action potential duration; effect on action potential upstroke (cardiac action potential): slows action potential upstroke; therapeutic dose (arrhythmia [9]; in vivo, literature): 20 to 40 mg/kg |
| C=C[C@H]1C[N@@]2CC[C@H]1C[C@@H]2[C@@H](O)c1ccnc2ccc(OC)cc12 [quinidine] |  |  |  |  |  |  |  |  |  |  | slowing conduction | depress cardiac function |  |
